In patent publication EP4349409A1, “COMPOUNDS FOR THE MANAGEMENT OF CELL STEMNESS AND INVASION IN CANCER AND RELATED DISEASES” (Instituto Biomar S.A., priority 2022, dated 2024):

Legend:
[1] = Pharmacokinetics in plasma after intraperitoneal administration; type: in vivo; details: female C57BL/6 mice, i.p. 100 mg/kg
Procedure: The Maximum Tolerated Dose (MTD) and Pharmacokinetics (PK) of BMT9 were determined after intraperitoneal administration to female C57BL/6 (~25 g) mice.
C57BL/6 female mice (9-13 weeks in age) were administered intraperitoneally with a single dose of BMT9 at 35, 50, 75, 100 or 200 mg/Kg. Total of 3 animals were used for each independent serial sampling experiment. The compound was dissolved in an appropriate vehicle (Cremophor:EtOH:H20 1:1:8). Body weight, distress and survival were monitored 1, 2, 4 hours and 8 hours post-administration and every day during the whole observation period. The MTD was set on the dose below the first dose that caused severe loss of body weight (>20%) or death of one or more animals of a dose group seven days after treatment. The MTD of BMT9 was therefore set on about […]. The concentrations of BMT9 in plasma was determined at different times per duplicate using a previously validated analytical method. The compound was injected via i.p at 100 mg/kg. Total of 3 animals were used for each independent serial sampling experiment. Blood samples were collected at 5, 15, 30 min, 1, 4, 10, 24, and 48 hours from each animal via cardiac puncture; […] withdrawn at each time point. 25 microliters of blood sample were then used for quantitative bioanalysis by HPLC-MS/MS. The fundamental pharmacokinetic parameters were obtained from the non-compartmental analysis using PK Solutions 2.0.2.

[2] = tested on: transcript levels originated from the P1-TP73 promoter (TAp73, ΔEx2p73 and ΔEx2/3p73); assay: qRT-PCR of P1-TP73 promoter transcripts in G144 cells; type: cell-based, human; details: G144, 72 h, dose dependent
Excerpt: As before, all isoforms were reduced by treatment, with TAp73 and ΔEx2/3p73 being the predominant isoforms, while ΔN'p73 was barely detected (Figure 4A). Ribosomal RNA 18S was used as housekeeping control, and all expression levels were normalized to the TAp73 NT value.

G179 = assay: Scratch (wound healing) assay, G179; type: cell-based; details: G179, 4.5µM, 24 h
Procedure: The effect of BMT9 in cell migration was evaluated using scratch assays, also known as wound healing assays. Cells were seeded in culture inserts for wound healing assays (Ibidi) at a cell density of 35,000 cells/cm^2; 24 h later the insert was removed to create the wound, and fresh medium was added with the corresponding treatment. Microscopy images were acquired at the time of treatment and 24 h later, using a Leica DMI3000 phase contrast microscope. Analysis was performed using the ImageJ software (Schindelin et al., 2012) and the MRI wound healing tool plugin (Suarez-Arnedo et al., 2020). Cell-free area was measured at the two indicated time points and the wound closure percentage relative to the starting point was calculated for each well individually. This assay was performed in G144 and in G179 cells (Figure 10 B and C, respectively).

G144 R500 = assay: MTT assay, TMZ-resistant clone G144 R500; type: cell-based; details: Homo sapiens, 72 hours
Excerpt: While the first line therapy of gliomas has proven its effectiveness and improved clinical outcomes, acquired chemoresistance to alkylating agents has been identified as a major cause of treatment failure (Sarkaria et al., 2008). In a murine model of GB, long-term treatment with subtoxic TMZ doses enriched the side population of cancer stem cells, increasing the tumor aggressiveness (Bleau et al., 2009). Thus, we generated TMZ-resistant G144-clones that were selected upon treatment with TMZ either at 500 µM or 700 µM for several months (R500 and R700, respectively). The obtained clones maintained CD133 stem marker expression (Figure 9A). We then analyzed BMT9 dose-dependent effect on cell viability, by MTT assay, comparing the resistant clones to parental cells.

## C=C1C2CCC(C)(C3COc4c(C)c(OC)c5c(c4C3O)C(O)OC5=O)C1CCC2(C)C (stereo not drawn) [BMT9]
[1]
  highest concentration in the plasma: 7611 ng/mL
  time at which plasma concentration reached the control levels post-administration: 24 h
  time of highest concentration in the plasma after injection: 4 h
[2]
  transcript levels originated from the P1-TP73 promoter (TAp73, ΔEx2p73 and ΔEx2/3p73): downregulated
G179
  cell migration (wound closure): significantly impaired cell migration
G144 R500
  IC50: 4.5 to 9 µM
